Results as given in the supplement of paper PMC10307832.

Legend:
Assay in all cases: relative viability (nuclei count vs DMSO), 5 days (fraction); higher = more cells survive
[1] = compound: CC1=CC=C(C=C1)C(=O)CN2C3=C(CCCC3)SC2=N [Pifithrin_alpha] + CCNC(=O)c1noc(-c2cc(C(C)C)c(O)cc2O)c1-c1ccc(CN2CCOCC2)cc1 [Luminespib] (partner 0.01 µM)
Outline: (§1)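 Each reported value is a median over duplicate plates. It expresses relative viability: treated-well nuclei count divided by vehicle-well nuclei count. Lung cancer cell lines in 1536-well plates were dosed by pin tool a day after seeding, alone with one drug or with a fixed anchor-drug dose plus five library-drug doses (not always all listed) in √10 steps, and nuclei were counted after 5 days.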

[2] = compound: CC1=CC=C(C=C1)C(=O)CN2C3=C(CCCC3)SC2=N [Pifithrin_alpha] + CC(C)C[C@H](NC(=O)[C@H](Cc1ccccc1)NC(=O)c1cnccn1)B(O)O [Bortezomib] (partner 0.002 µM)
Outline: as §1

[3] = compound: Nc1nc(Nc2ccc3c(c2)CC[C@@H](N2CCCC2)CC3)nn1-c1cc2c(nn1)-c1ccccc1CCC2 [Bemcentinib] + CC(=O)Nc1cccc(-n2c(=O)n(C3CC3)c(=O)c3c(Nc4ccc(I)cc4F)n(C)c(=O)c(C)c32)c1 [Trametinib] (partner 0.02 µM)
Outline: as §1

[4] = compound: CC1=CC=C(C=C1)C(=O)CN2C3=C(CCCC3)SC2=N [Pifithrin_alpha] + CS(=O)(=O)N1CCN(Cc2cc3nc(-c4cccc5[nH]ncc45)nc(N4CCOCC4)c3s2)CC1 [Pictilisib] (partner 1 µM)
Outline: as §1

Cell Line | relative viability ([1]; first compound 1 µM) | relative viability ([1]; first compound 3.162 µM) | relative viability ([1]; first compound 10 µM) | relative viability ([1]; first compound 31.62 µM) | relative viability ([1]; first compound 100 µM) | relative viability ([2]; first compound 1 µM) | relative viability ([2]; first compound 3.162 µM) | relative viability ([2]; first compound 10 µM) | relative viability ([2]; first compound 31.62 µM) | relative viability ([2]; first compound 100 µM) | relative viability ([3]; first compound 0.04 µM) | relative viability ([3]; first compound 0.1265 µM) | relative viability ([3]; first compound 0.4 µM) | relative viability ([3]; first compound 1.265 µM) | relative viability ([3]; first compound 4 µM) | relative viability ([4]; first compound 1 µM) | relative viability ([4]; first compound 3.162 µM) | relative viability ([4]; first compound 10 µM) | relative viability ([4]; first compound 31.62 µM) | relative viability ([4]; first compound 100 µM)
HOP-62 | 1.07 | 1.05 | 1.04 | 0.776 | 1.19 | 0.92 | 0.983 | 0.955 | 0.514 | 1.14 | 0.341 | 0.337 | 0.402 | 0.395 | 0.458 | 0.376 | 0.822 | 0.875 | 0.342 | 0.804
NCI-H441 | 0.355 | 0.369 | 0.383 | – | 0.464 | 0.245 | 0.821 | 0.442 | 0.448 | 0.503 | 0.294 | 0.435 | 0.499 | 0.347 | 0.409 | 0.552 | 0.582 | 0.624 | 0.436 | 0.438
LC-2-ad | – | 1.14 | 1.01 | – | 0.601 | 0.892 | 1.04 | 0.976 | 0.767 | 0.768 | 0.946 | 0.963 | 0.952 | 0.98 | 0.962 | 0.414 | 0.382 | 0.489 | 0.304 | 0.18
NCI-H838 | 0.248 | 0.292 | 0.263 | 0.237 | 0.198 | 0.786 | 0.628 | 0.599 | 0.626 | 0.62 | 0.501 | 0.535 | 0.533 | 0.432 | 0.534 | 0.343 | 0.357 | 0.399 | 0.293 | 0.314
CAL-12T | 0.277 | 0.327 | 0.521 | – | 0.186 | 0.962 | 1.09 | 1.02 | 0.666 | 0.809 | 0.347 | 0.321 | 0.302 | 0.339 | 0.372 | 0.415 | 0.385 | 0.348 | 0.347 | 0.331
EPLC-272H | 0.279 | 0.264 | 0.564 | 0.226 | 0.16 | – | 0.944 | 0.895 | 0.627 | 1.11 | 0.268 | 0.287 | 0.329 | 0.289 | 0.295 | – | 0.319 | 0.35 | 0.255 | 0.248
NCI-H1915 | 0.972 | 1.25 | – | – | 1.08 | 0.947 | 1.15 | 0.904 | – | 1.35 | 0.291 | 0.29 | 0.283 | 0.293 | 0.305 | 0.763 | 0.902 | 0.775 | – | 0.838
NCI-H2087 | 0.169 | 0.172 | 0.153 | – | 0.135 | 0.733 | 0.768 | 0.941 | 0.489 | 1.02 | 0.192 | 0.193 | 0.201 | 0.211 | 0.206 | 0.74 | 0.872 | 0.894 | 0.453 | 0.757
LCLC-97TM1 | 0.742 | 0.783 | 0.774 | 0.423 | 0.808 | – | 0.596 | 0.397 | – | 0.487 | 0.206 | 0.195 | 0.2 | 0.232 | 0.2 | – | 0.179 | 0.224 | – | 0.229
NCI-H1734 | 0.184 | 0.186 | 0.191 | 0.159 | 0.18 | 1.1 | 0.928 | 0.899 | 0.7 | 0.817 | 0.679 | 0.743 | 0.739 | 0.625 | 0.701 | 0.494 | 0.491 | 0.481 | 0.381 | 0.434
EKVX | 0.885 | – | 0.826 | 0.726 | 0.769 | 1.07 | 0.94 | 0.768 | 0.607 | 0.648 | 0.32 | 0.372 | 0.351 | 0.491 | 0.34 | 0.328 | 0.283 | 0.281 | 0.235 | 0.214
201T | 1.23 | 0.805 | 0.917 | 0.8 | 0.766 | 1.05 | 1.07 | 1.16 | 0.794 | 0.913 | 0.731 | 0.778 | 0.744 | 0.743 | 0.734 | 0.603 | 0.525 | 0.52 | 0.53 | 0.551
NCI-H2085 | – | 0.404 | 0.513 | 0.387 | 0.387 | 0.993 | 1.07 | 1.01 | 0.878 | 1 | 0.538 | 0.667 | 0.526 | 0.444 | 0.516 | 0.487 | 0.498 | 0.444 | 0.43 | 0.404
NCI-H2405 | 0.757 | 0.571 | 0.536 | 0.668 | 0.515 | 0.869 | 0.935 | 0.925 | 0.857 | 0.953 | 0.6 | 0.732 | 0.621 | 0.7 | 0.722 | – | 0.39 | 0.427 | 0.403 | 0.292
NCI-H1650 | – | 0.223 | 0.176 | 0.209 | 0.169 | 0.182 | 0.202 | 0.18 | 0.189 | 0.169 | 0.483 | 0.684 | 0.617 | 0.594 | 0.459 | 0.286 | 0.44 | 0.53 | 0.353 | 0.468
EMC-BAC-2 | 1.17 | 1.12 | 0.969 | – | 1.08 | 1.07 | 1.09 | 0.99 | 0.8 | 1.15 | 0.874 | 0.896 | 0.873 | 0.897 | 0.967 | 0.511 | 0.566 | 0.55 | 0.456 | 0.545
LCLC-103H | 0.947 | 0.994 | 0.894 | 0.789 | 0.996 | 1.12 | 1.08 | 0.902 | 0.831 | 1.25 | 0.706 | 0.736 | 0.679 | 0.712 | 0.707 | 0.53 | 0.531 | 0.566 | 0.551 | 0.567
